27 compounds from ChEMBL document CHEMBL1149477, “Monocyclic thiophenes as protein tyrosine phosphatase 1B inhibitors: capturing interactions with Asp48” (Bioorg Med Chem Lett, 2006) can be followed below.

Molecules are shown by their SMILES. Calls of active or inactive are those of the source. The calls are words filed in the database; no cut-off is given here. Bounds are passed on as bounds.

In test [1] the target is T1, Tyrosine-protein phosphatase non-receptor type 1 (Homo sapiens, UniProt P18031).
T1 sequence (P18031 whole entry): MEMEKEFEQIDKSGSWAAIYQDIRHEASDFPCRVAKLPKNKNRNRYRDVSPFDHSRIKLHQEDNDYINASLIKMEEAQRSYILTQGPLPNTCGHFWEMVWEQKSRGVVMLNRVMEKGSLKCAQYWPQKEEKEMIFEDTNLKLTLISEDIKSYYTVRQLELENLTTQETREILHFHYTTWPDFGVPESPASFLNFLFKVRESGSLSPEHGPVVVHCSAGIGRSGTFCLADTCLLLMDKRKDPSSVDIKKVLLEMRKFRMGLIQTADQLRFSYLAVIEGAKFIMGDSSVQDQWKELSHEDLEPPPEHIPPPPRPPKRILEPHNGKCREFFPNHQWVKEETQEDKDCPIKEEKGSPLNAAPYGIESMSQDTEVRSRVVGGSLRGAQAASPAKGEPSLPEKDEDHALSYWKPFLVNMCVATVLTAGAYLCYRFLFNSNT
Put plainly: (§1) Inhibition of PTP1B.

For test [2], the target named is Receptor-type tyrosine-protein phosphatase F (Homo sapiens, UniProt P10586). Put plainly: Inhibition of LAR.
Chain of Receptor-type tyrosine-protein phosphatase F (P10586 whole entry): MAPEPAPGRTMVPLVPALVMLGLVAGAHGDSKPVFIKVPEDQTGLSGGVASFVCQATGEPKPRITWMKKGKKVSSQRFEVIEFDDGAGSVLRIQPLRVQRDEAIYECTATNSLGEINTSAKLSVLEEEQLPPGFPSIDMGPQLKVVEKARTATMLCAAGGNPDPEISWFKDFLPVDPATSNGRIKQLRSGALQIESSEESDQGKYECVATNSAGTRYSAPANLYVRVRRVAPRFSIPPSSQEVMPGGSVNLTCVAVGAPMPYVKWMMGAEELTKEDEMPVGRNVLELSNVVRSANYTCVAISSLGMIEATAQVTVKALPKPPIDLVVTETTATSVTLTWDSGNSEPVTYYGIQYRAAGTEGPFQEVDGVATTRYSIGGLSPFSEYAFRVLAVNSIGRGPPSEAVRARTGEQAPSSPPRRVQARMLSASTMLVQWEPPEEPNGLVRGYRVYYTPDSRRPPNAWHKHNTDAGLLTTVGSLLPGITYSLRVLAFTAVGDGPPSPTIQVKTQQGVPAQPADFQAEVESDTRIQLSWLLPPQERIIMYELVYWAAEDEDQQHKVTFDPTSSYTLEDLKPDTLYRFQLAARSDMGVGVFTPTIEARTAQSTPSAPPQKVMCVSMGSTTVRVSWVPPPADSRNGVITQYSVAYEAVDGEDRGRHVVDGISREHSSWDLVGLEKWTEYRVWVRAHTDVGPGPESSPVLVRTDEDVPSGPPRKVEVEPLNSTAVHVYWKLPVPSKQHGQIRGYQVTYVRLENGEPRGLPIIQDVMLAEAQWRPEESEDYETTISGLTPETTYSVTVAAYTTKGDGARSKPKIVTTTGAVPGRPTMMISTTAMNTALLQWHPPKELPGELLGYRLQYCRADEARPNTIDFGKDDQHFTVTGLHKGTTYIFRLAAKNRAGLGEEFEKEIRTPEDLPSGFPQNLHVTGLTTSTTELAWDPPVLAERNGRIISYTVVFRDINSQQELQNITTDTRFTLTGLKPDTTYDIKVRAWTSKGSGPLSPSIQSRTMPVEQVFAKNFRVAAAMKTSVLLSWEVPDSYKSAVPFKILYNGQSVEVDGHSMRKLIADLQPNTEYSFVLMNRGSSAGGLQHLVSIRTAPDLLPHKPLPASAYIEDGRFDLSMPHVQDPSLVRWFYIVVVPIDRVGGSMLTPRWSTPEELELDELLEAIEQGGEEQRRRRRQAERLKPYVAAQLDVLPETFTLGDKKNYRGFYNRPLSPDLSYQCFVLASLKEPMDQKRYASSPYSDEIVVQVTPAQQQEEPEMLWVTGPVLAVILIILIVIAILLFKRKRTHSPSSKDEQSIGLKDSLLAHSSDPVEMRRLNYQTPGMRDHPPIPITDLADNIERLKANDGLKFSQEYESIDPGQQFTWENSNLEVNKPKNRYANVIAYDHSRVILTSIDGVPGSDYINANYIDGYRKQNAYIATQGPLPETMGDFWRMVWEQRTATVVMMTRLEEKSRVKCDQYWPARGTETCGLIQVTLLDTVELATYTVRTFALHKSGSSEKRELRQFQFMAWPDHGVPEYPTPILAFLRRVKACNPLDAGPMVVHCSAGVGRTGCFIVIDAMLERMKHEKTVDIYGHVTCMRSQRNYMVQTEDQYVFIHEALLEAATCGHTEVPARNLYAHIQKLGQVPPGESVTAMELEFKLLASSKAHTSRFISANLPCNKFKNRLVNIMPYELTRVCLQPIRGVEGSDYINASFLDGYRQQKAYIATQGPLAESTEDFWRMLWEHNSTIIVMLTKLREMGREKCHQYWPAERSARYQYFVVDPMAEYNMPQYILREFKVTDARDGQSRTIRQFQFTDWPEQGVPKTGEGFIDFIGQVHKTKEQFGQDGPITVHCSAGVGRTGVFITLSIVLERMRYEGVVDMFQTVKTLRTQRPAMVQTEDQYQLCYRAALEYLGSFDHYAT
The target in test [3] is T2, Receptor-type tyrosine-protein phosphatase C (Homo sapiens, UniProt P08575).
T2 sequence (P08575 whole entry): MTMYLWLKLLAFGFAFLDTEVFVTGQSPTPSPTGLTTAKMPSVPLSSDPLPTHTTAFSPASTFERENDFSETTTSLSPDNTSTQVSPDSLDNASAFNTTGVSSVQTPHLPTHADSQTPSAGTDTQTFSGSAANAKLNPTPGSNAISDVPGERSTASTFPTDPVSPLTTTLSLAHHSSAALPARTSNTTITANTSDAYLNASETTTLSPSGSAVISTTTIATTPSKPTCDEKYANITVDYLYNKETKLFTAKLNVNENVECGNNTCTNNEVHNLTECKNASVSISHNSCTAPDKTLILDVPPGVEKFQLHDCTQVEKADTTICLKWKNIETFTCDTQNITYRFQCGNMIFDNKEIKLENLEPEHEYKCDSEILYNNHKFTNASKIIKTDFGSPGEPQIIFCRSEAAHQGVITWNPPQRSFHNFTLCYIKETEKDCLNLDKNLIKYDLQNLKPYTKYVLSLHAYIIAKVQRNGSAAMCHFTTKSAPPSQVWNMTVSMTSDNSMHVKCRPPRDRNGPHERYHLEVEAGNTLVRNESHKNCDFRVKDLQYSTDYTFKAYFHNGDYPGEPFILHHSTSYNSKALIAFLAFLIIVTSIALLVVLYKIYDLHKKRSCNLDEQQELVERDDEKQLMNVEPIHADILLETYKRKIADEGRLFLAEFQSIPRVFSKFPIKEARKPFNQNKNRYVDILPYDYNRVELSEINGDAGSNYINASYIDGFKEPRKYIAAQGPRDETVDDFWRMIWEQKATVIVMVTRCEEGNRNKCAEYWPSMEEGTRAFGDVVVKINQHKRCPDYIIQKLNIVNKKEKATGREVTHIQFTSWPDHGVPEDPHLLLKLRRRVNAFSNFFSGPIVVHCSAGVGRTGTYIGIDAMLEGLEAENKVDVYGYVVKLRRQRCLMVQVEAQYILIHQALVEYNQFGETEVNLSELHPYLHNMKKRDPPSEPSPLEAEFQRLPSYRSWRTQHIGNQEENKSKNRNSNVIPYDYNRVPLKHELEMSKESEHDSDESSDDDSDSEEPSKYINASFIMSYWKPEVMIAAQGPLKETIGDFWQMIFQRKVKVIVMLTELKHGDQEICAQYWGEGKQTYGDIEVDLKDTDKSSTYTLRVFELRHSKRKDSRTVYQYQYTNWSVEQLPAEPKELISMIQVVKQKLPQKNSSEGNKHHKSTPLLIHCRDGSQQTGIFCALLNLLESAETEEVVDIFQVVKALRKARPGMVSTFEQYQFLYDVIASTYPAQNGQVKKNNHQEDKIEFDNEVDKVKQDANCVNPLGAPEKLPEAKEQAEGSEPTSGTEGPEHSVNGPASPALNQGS
Put plainly: Inhibition of CD45.

In test [4] the target is T3, Tyrosine-protein phosphatase non-receptor type 1 (Homo sapiens) (UniProt P18031).
T3 sequence (whole entry): T1 sequence (P18031 whole entry)
The description is as §1.

As for `Cc1csc(C(=O)O)c1OCC(=O)O`, the Ki in test [1] was greater than 1000 µM. In test [1], `CC(=O)Nc1ccc(-c2sc(C(=O)O)c(OCC(=O)O)c2Br)cc1` came in with an inhibitory constant (Ki) of 0.5 µM. Same read-out and setting: under `O=C(O)COc1c(C(=O)O)sc(-c2ccc3ccoc3c2)c1Br` stands 5 µM.

On to `O=C(O)COc1c(C(=O)O)sc(-c2ccccc2)c1Br`, for which the figures for the Ki in test [2] and in test [3] were greater than 1 mM and 26 µM, respectively. `O=C(O)COc1c(C(=O)O)sc(-c2cccc(O)c2)c1Br` yielded a Ki in test [1] of 1 µM. In the case of `O=C(O)COc1c(C(=O)O)sc(-c2ccc(NC(=O)c3cccnc3)cc2)c1Br`, the inhibition constant (Ki) in test [2] came to 0.32 mM; in test [3] it was 55 µM.

The compound `CS(=O)(=O)Nc1ccc(-c2sc(C(=O)O)c(OCC(=O)O)c2Br)cc1` registered a Ki in test [1] of 0.74 µM. In test [1], `O=C(O)COc1c(C(=O)O)sc(-c2ccc(C(=O)Nc3ccccc3)cc2)c1Br` had an inhibition constant Ki of 2.5 µM. Still for that read-out and setting: the result for `O=C(O)COc1c(C(=O)O)sc(-c2ccc(NS(=O)(=O)c3ccc(C(F)(F)F)cc3)cc2)c1Br` reads 0.2 µM. Same read-out and setting: under `O=C(O)COc1ccsc1C(=O)O` stands greater than 1000 µM. On to `O=C(O)COc1c(C(=O)O)sc(-c2ccc(NC(=O)CC(=O)O)cc2)c1Br`, for which the results for the Ki in test [2] and in test [3] were greater than 1 mM and 33 µM, respectively. As to `CC1(C)CC(Nc2ccc(-c3sc(C(=O)O)c(OCC(=O)O)c3Br)cc2)CC(C)(C)C1`, the inhibitory constant (Ki) in test [1] came out at 0.25 µM. With `COc1ccc(-c2sc(C(=O)O)c(OCC(=O)O)c2Br)cc1`, the affinity in test [1] corresponds to a Ki of 3 µM.

For the compound `O=C(O)COc1c(C(=O)O)sc(-c2ccsc2)c1Br`, in test [1], affinity was put at a Ki of 1.4 µM. On the same count and under the same terms, under `O=C(O)COc1c(C(=O)O)sc(Br)c1Br` stands 18 µM; under `CC(C)NC(=O)Nc1ccc(-c2sc(C(=O)O)c(OCC(=O)O)c2Br)cc1`, 0.36 µM; under `COC(=O)Nc1ccc(-c2sc(C(=O)O)c(OCC(=O)O)c2Br)cc1`, 1 µM. On the same count and under the same terms, the result for `O=C(O)COc1c(C(=O)O)sc(-c2ccc(NC(=O)c3ccco3)cc2)c1Br` reads 0.62 µM. The same measure, in the same setting: under `Nc1ccc(-c2sc(C(=O)O)c(OCC(=O)O)c2Br)cc1` stands 1.6 µM; under `O=C(O)COc1c(C(=O)O)sc(-c2cccnc2)c1Br`, 4 µM. The compound `O=C(O)COc1c(C(=O)O)sc(-c2ccc3ccccc3c2)c1Br` had a Ki in test [1] of 3.3 µM. The same measure, in the same setting: under `O=C(O)COc1c(C(=O)O)sc(-c2ccc(NC(=O)c3ccccc3)cc2)c1Br` stands 0.6 µM.

For `O=C(O)COc1c(C(=O)O)sc(-c2ccccc2)c1-c1ccccc1`, the result in test [4] was inactive. With `CN(C)c1ccc(-c2sc(C(=O)O)c(OCC(=O)O)c2Br)cc1`, the values for the inhibitory constant (Ki) in test [2] and in test [3] were greater than 1 mM and 64 µM, respectively. As for `CN(c1ccc(-c2sc(C(=O)O)c(OCC(=O)O)c2Br)cc1)S(=O)(=O)c1ccc(C(F)(F)F)cc1`, the inhibitory constant (Ki) in test [1] turned out to be 1.2 µM.

`O=C(O)COc1c(C(=O)O)sc(-c2ccc3cc[nH]c3c2)c1Br` returned an inhibitory constant (Ki) in test [1] of 0.57 µM. Compound `O=C(O)COc1c(-c2ccccc2)csc1C(=O)O` displayed a Ki in test [1] greater than 1000 µM.

By Ki is commonly meant a measure of affinity in units of concentration, obtained from inhibition or displacement. A high value points to lower affinity.
